Converted amounts (≈) assume the structure as drawn. Like-named read-outs stand apart in the source and are kept apart here.
How the values were obtained:
[1] = test system: SaR1: Meticillin-Resistant Staphylococcus aureus without Associated Resistance; assay: Antibiogram, MIC by the VITEK 2 system; assay type: cell-based; details: for CA-SFM Interpretation: Cc CA-SFM 2011; for CLSI Interpretation: Cc CLSI 2011; for EUCAST Interpretation: Cc EUCAST 2011; for Results: from MIC
Method: (§1) The bacterial and antibiogramidentification is carried out by the VITEK 2 system (bioMérieux)

[2] = test system: SaR3: Meticillin-Resistant Staphylococcus aureus; assay: Antibiogram by the disk diffusion technique; assay type: cell-based; details: for CA-SFM Interpretation: Cd CA-SFM 2011; for Results: Table E1, against Dmin Dmax; for diameter in mm: Table E2
Method: (§2) The bacterial and antibiogramidentification is carried out by the VITEK 2 system (bioMérieux) and by the disk diffusion technique

[3] = test system: Staphylococcus aureus strain ATCC 29213 (wild type); assay: MIC of the compounds used alone, microdilution in a liquid medium (CLSI); assay type: cell-based; details: Staphylococcus aureus
Excerpt: (§3) The MICs of the antibiotics were previously defined for each strain, by the method of microdilution in a liquid medium (CLSI (Clinical and Laboratory Standards Institute), 2003).

[4] = test system: SaR1: Meticillin-Resistant Staphylococcus aureus without Associated Resistance; assay: Antibiogram, inhibition diameter (Table D1); assay type: cell-based; details: for Results: from diameter, against Dmin Dmax
Method: as §1

[5] = test system: MRSA strain having a resistance to the aminoglycosides and fluoroquinolones (SaR3); assay: MIC of the compounds used alone, microdilution in a liquid medium (CLSI); assay type: cell-based, Staphylococcus aureus; details: Staphylococcus aureus, MRSA
Excerpt: as §3

[6] = as above; assay type: cell-based, Staphylococcus aureus; details: Staphylococcus aureus, MRSA
Excerpt: as §3

[7] = test system: MRSA strain without associated resistance (SaR1); assay: as above; assay type: cell-based, Staphylococcus aureus; details: Staphylococcus aureus, MRSA
Excerpt: as §3

[8] = test system: EcR2: Cephalosporinase-Hyperproducing Strain of Escherichia coli; assay: Antibiogram by the disk diffusion technique; assay type: cell-based
Method: The bacterial and antibiogramidentification is carried out by the VITEK 1 system (bioMérieux) and by the disk diffusion technique

[9] = test system: EcR1: Penicillinase-Producing Escherichia coli without Associated Resistance; assay: Antibiogram, MIC by the VITEK 2 system; assay type: cell-based; details: for MIC: Escherichia coli
Method: (§4) 5.1 EcR1: Penicillinase-Producing Escherichia coli without Associated Resistance The bacterial and antibiogramidentification is carried out by the VITEK 2 system (bioMérieux) and by the disk diffusion technique.

[10] = test system: EcR3: ESBL-Producing Escherichia coli; assay: Antibiogram by the disk diffusion technique; assay type: cell-based
Method: The bacterial and antibiogramidentification is carried out by the VITEK 2 system (bioMerieux) and by the disk diffusion technique

[11] = test system: penicillinase-producing strain of Escherichia coli without associated resistance (EcR1); assay: MIC of the compounds used alone, microdilution in a liquid medium (CLSI); assay type: cell-based; details: Escherichia coli, antibiotic alone (second value of cell), read-out: Initial MICs
Excerpt: as §3

[12] = test system: ESBL-producing strain of Escherichia coli, having an associated resistance to the aminoglycosides (EcR3); assay: as above; assay type: cell-based; details: Escherichia coli, antibiotic alone (second value of cell), read-out: Initial MICs
Excerpt: as §3

[13] = test system: cephalosporinase-hyperproducing strain of Escherichia coli (EcR2); assay: as above; assay type: cell-based; details: Escherichia coli, antibiotic alone (second value of cell), read-out: Initial MICs
Excerpt: as §3

[14] = test system: Escherichia coli strain ATCC 25922 (wild type); assay: as above; assay type: cell-based; details: Escherichia coli
Excerpt: as §3

[15] = test system: EcR1: Penicillinase-Producing Escherichia coli without Associated Resistance; assay: Antibiogram by the disk diffusion technique; assay type: cell-based; details: Table A1
Method: as §4

[16] = test system: Pseudomonas aeruginosa strain ATCC 27853 (wild type); assay: MIC of the compounds used alone, microdilution in a liquid medium (CLSI); assay type: cell-based; details: Pseudomonas aeruginosa, ATCC27853, read-out: Initial MICs (mg/L), antiseptic (ATS)
Excerpt: as §3

[17] = test system: SaR4: Meticillin-Resistant Staphylococcus aureus; assay: Antibiogram, MIC by the VITEK 2 system; assay type: cell-based; details: for MIC: Staphylococcus aureus
Method: as §2

CC(=O)NC[C@H]1CN(c2ccc(N3CCOCC3)c(F)c2)C(=O)O1 [Linezolid]
CA-SFM Interpretation ([1]; SaR1): Susceptible | CLSI Interpretation ([1]; SaR1): Susceptible | EUCAST Interpretation ([1]; SaR1): Susceptible | Results ([1]; SaR1, Table D1): Susceptible | MIC ([1]; SaR1, Table D2): 2 mg/L (≈ 5.93 µM) | MIC ([1]; Staphylococcus aureus, SaR1, Table D1, read-out: MIC): 2 mg/L (≈ 5.93 µM) | CA-SFM Interpretation [2]: Susceptible | CLSI Interpretation ([2]; Cd CLSI 2011): Susceptible | EUCAST Interpretation ([2]; Cd EUCAST 2011): Susceptible | Diameter ([2]; Table E1): 26 mm | Results [2]: Susceptible | diameter in mm [2]: 26 mm | MIC ([3]; ATCC29213, antibiotic alone (second value of cell), S. aureus ATCC 29213, read-out: Initial MICs): 2 mg/L | Diameter [4]: 29 mm | Results [4]: Susceptible | MIC ([5]; antibiotic alone (second value of cell), SaR3, read-out: MIC): 2 µg/mL | MIC ([6]; antibiotic alone (second value of cell), SaR4, read-out: MIC): 2 µg/mL | MIC ([7]; antibiotic alone (second value of cell), SaR1, read-out: MIC): 2 µg/mL

CO/N=C(\C(=O)N[C@@H]1C(=O)N2C(C(=O)O)=C(COC(C)=O)CS[C@H]12)c1csc(N)n1 [Cefotaxime]
Diameter ([8]; EcR2, disk diffusion, Table B1): 24 | Results ([8]; EcR2, rows that print a diameter, Table B1): Intermediate | Diameter ([8]; EcR2, Table B2, diameters): 24 mm | CA-SFM Interpretation ([8]; EcR2, from diameter, CA-SFM 2011): Intermediate | CLSI Interpretation ([8]; EcR2, from diameter, CLSI 2011): Intermediate | EUCAST Interpretation ([8]; EcR2, from diameter, EUCAST 2011): Resistant | CA-SFM Interpretation ([9]; EcR1, MIC against Cc CA-SFM 2011): Susceptible | CLSI Interpretation ([9]; EcR1, MIC against Cc CLSI 2011): Susceptible | EUCAST Interpretation ([9]; EcR1, MIC against Cc EUCAST 2011): Susceptible | Results ([9]; EcR1, interpretation of the MIC, Table A1): Susceptible | MIC ([9]; EcR1, Table A2, read-out: MIC mg/L (diameter in mm)): ≤ 1 mg/L | MIC ([9]; EcR1, VITEK 2, Table A1, read-out: MIC): ≤ 1 mg/L | CA-SFM Interpretation ([10]; Cd CA-SFM 2011): Resistant | CLSI Interpretation ([10]; Cd CLSI 2011): Resistant | EUCAST Interpretation ([10]; Cd EUCAST 2011): Intermediate | Diameter ([10]; Table C1): 19 mm | Results ([10]; Table C1, against Dmin Dmax): Intermediate | diameter in mm ([10]; Table C2): 19 mm | MIC [11]: 0.06 µg/mL | MIC [12]: 128 µg/mL | MIC [13]: 4 µg/mL | MIC ([14]; ATCC25922, antibiotic alone (second value of cell), E. coli ATCC 25922, read-out: Initial MICs): 0.06 mg/L | Diameter ([15]; EcR1, disk diffusion): 30 mm | Results ([15]; EcR1, interpretation of the diameter against Dmin Dmax): Susceptible

N=C(N)c1ccc(OCCCCCCOc2ccc(C(=N)N)cc2)cc1 [Hexamidine]
MIC ([14]; ATCC25922, read-out: Initial MICs (mg/L), antiseptic (ATS)): 8 mg/L | MIC ([3]; ATCC29213, read-out: Initial MICs (mg/L), antiseptic (ATS)): < 1 mg/L | MIC [16]: 32 mg/L

CN[C@H](CC(C)C)C(=O)N[C@H]1C(=O)N[C@@H](CC(N)=O)C(=O)N[C@H]2C(=O)N[C@H]3C(=O)N[C@H](C(=O)N[C@H](C(=O)O)c4cc(O)cc(O)c4-c4cc3ccc4O)[C@H](O)c3ccc(c(Cl)c3)Oc3cc2cc(c3O[C@@H]2O[C@H](CO)[C@@H](O)[C@H](O)[C@H]2O[C@H]2C[C@](C)(N)[C@H](O)[C@H](C)O2)Oc2ccc(cc2Cl)[C@H]1O [Vancomycin]
CA-SFM Interpretation ([1]; SaR1): Susceptible | CLSI Interpretation ([1]; SaR1): Susceptible | EUCAST Interpretation ([1]; SaR1): Susceptible | Results ([1]; SaR1, Table D1): Susceptible | MIC mg/L ([1]; SaR1, Table D2): ≦1 mg/L | MIC ([1]; Staphylococcus aureus, read-out: MIC mg/L): ≤ 1 mg/L | CA-SFM Interpretation [2]: Susceptible | Results [2]: Susceptible | diameter in mm [2]: 28 mm | Results ([17]; SaR4, Table F1, MIC): Susceptible | CA-SFM Interpretation ([17]; SaR4, from MIC, Cc CA-SFM 2011): Susceptible | CLSI Interpretation ([17]; SaR4, from MIC, Cc CLSI 2011): Susceptible | EUCAST Interpretation ([17]; SaR4, from MIC, Cc EUCAST 2011): Susceptible | MIC [17]: 1 mg/L (≈ 0.69 µM) | MIC ([17]; read-out: MIC mg/L): 1 mg/L (≈ 0.69 µM) | MIC ([3]; ATCC29213, read-out: Initial MICs (mg/L)): 0.5 mg/L | Results [4]: Susceptible | MIC [5]: 0.25 µg/mL | MIC [6]: 0.25 µg/mL | MIC [7]: 0.25 µg/mL
